These are literature values, as cited in patent publication US20020187562A1, “Materials for separating and detecting enantiomers of amphetamine or methamphetamine, and their application” (priority 2001, published 2002).

This series deals with central nervous system. To be noted: relative to D-MA.

Structures are written as SMILES.

`CN[C@H](C)Cc1ccccc1` [L-MA, (R)-(−)-N-methyl-1-phenyl-2-aminopropane]: the “stimulation to the central nervous system of humans compared with D-MA” value is “much weaker than that of D-MA”.
